Data set [1] deals with T1, recombinant human Muscarinic M1 receptor (Homo sapiens, UniProt P11229).
T1 sequence (P11229 1-460): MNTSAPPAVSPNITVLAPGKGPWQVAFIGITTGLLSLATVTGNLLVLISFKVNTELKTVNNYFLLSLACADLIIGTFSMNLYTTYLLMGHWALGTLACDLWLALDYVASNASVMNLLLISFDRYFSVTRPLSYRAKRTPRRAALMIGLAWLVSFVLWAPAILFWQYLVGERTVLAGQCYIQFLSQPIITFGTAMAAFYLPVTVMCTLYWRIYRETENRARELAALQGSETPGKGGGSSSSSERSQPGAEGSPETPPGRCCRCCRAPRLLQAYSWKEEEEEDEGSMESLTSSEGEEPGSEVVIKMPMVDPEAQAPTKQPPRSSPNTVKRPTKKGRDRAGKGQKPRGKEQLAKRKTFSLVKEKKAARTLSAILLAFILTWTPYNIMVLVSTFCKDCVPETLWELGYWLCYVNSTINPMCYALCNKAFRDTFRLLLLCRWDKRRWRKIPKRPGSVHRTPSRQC
The experiment in a line: Allosteric potency EC50 for Muscarinic M1 receptor, CHO pCRE-Luc reporter cell-based assay with EC20 of acetylcholine. Conditions: CHO cells, human M1, luciferase reporter, in presence of EC20 of acetylcholine, 4 h. As to the method: Determination of allosteric potency EC50 values for Muscarinic M1 receptor:
A stable CHO cell line expressing recombinant human Muscarinic M1 receptor and pCRE-Luc reporter system was used for cell-based assay. The assay offers a non-radioactive based approach to determine binding of a compound to GPCRs. In this specific assay, the level of intracellular cyclic AMP which is modulated by activation or inhibition of the receptor is measured. The recombinant cells harbor luciferase reporter gene under the control of cAMP response element.
The above cells were grown in 96 well clear bottom white plates in Hams F12 medium containing 10% fetal bovine serum (FBS). Prior to the addition of compounds or standard agonist, cells were serum starved overnight. Increasing concentrations of test compounds were added along with EC20 of acetylcholine in OptiMEM medium to the cells. The incubation was continued at 37° C. in CO2 incubator for 4 h. Medium was removed and cells were washed with phosphate buffered saline. The cells were lysed and luciferase activity was measured in a Luminometer. Luminescence counts in each concentrations of test item were normalized to the acetylcholine induced maximum response and the data was analyzed using Graphpad software. EC50 values of the compounds were defined as the concentration required in stimulating the luciferase activity by 50% in presence of EC20 of acetylcholine.
A general note: Reporter assays use an easily measured gene product as a stand-in for the process of interest.

Data set [2] in a line: Rodent pharmacokinetic study. As to conditions: male, Wistar, rat, plasma; for bioavailability: oral 3 mg/kg vs i.v. 1 mg/kg, read-out: F (bioavailability). Type of data set: in vivo, Male Wistar rats. As to the method: Rodent Pharmacokinetic Study
Male Wistar rats (260±50 grams) were used as experimental animals. Animals were housed individually in polypropylene cage. Two days prior to study, male Wistar rats were anesthetized with isoflurane for surgical placement of jugular vein catheter. Rats were randomly divided for oral (3 mg/kg) and intravenous (i.v) (1 mg/kg) dosing (n=3/group) and fasted overnight before oral dosing (p.o.). However, rats allocated to intravenous (i.v.) dosing food and water was provided ad libitum.
At pre-determined point, blood was collected through jugular vein and replenished with an equivalent volume of normal saline. Collected blood was transferred into a labelled eppendorf tube containing 10 μL of heparin as an anticoagulant. Typically blood samples were collected at following time points: 0.08, 0.25, 0.5, 1, 2, 4, 6, 8, and 24 h post dose. Blood was centrifuged at 4000 rpm for 10 minutes. Plasma was separated and stored frozen at −80° C. until analysis. The concentrations of the test compounds were quantified in plasma by qualified LC-MS/MS method using suitable extraction technique. The test compounds were quantified in the calibration range around 1-1000 ng/mL in plasma. Study samples were analyzed using calibration samples in the batch and quality control samples spread across the batch.
Pharmacokinetic parameters Cmax, Tmax (h), AUCt, T1/2, clearance and bioavailability (F) were calculated by non-compartmental model using standard non-compartmental model by using Phoenix WinNonlin 6.0.2 or 6.0.3 version Software package.

Data set [3] in a line: Rodent brain penetration study. Type of data set: in vivo, Male Wistar rats. As to conditions: male, Wistar, brain and plasma, po; rat, 3 mg/kg, p.o. @ 1.0 hr, brain-plasma ratio; read-out: Single dose Rat Brain Penetration (Cb/Cp). As to the method: Rodent Brain Penetration Study
Male Wistar rats (260±40 grams) were used as experimental animals. Three animals were housed in each cage. Animals were given water and food ad libitum throughout the experiment and maintained on a 12 h light/dark cycle.
Brain penetration was determined in discrete manner in rats. One day prior to dosing day, male Wistar rats were acclimatized and randomly grouped according to their weight. At each time point (0.5, 1 and 2 h) n=3 animals were used.
The test compounds were suitably preformulated and administered orally at (free base equivalent) 3 mg/kg. Blood samples were removed via cardiac puncture by using isoflurane anesthesia. The animals were sacrificed to collect brain tissue. Plasma was separated and brain samples were homogenized and stored frozen at −20° C. until analysis. The concentrations of the test compounds in plasma and brain were determined using LC-MS/MS method.
The test compounds were quantified in plasma and brain homogenate by qualified LC-MS/MS method using suitable extraction technique. The test compounds were quantified in the calibration range of 1-500 ng/mL in plasma and brain homogenate. Study samples were analyzed using calibration samples in the batch and quality control samples spread across the batch.

`Cc1c(Cc2ccnc(Cl)c2)cc(C(=O)N[C@H]2CCCC[C@@H]2O)c2ncccc12` [Example 1, N-(cis-1S,2S-2-Hydroxycyclohexyl)-6-(2-chloropyridin-4-ylmethyl)-5-methylquinoline-8-carboxamide]: the EC50 (usually the concentration giving half of the maximal effect) in data set [1] was found to be 719 nM. Moreover, in data set [2] (iv, i.v. 1 mg/kg), the AUC(0-t) (in general, exposure summed from dosing to a finite time, without extrapolation to infinity) was 492 ± 22 ng·h/mL; the half-life (as a rule, the time in which the quantity being followed falls by half) is 1.3 ± 0.5 h; the clearance (usually the rate of elimination divided by the concentration) was 34 ± 1.5 mL/min/kg. Moreover, in data set [2], the bioavailability (as a rule, dose-corrected exposure relative to a reference, in per cent) turned out to be 24 ± 8%. Also, in data set [2] (oral 3 mg/kg), the area under the curve AUC(0-t) was 360 ± 117 ng·h/mL; the maximum concentration (Cmax) (usually the maximum level reached in the sampled fluid or tissue) was 150 ± 39 ng/mL; the Tmax – broadly, the time from dosing to the highest level – was 0.5 to 1 h; the half-life was 1.1 ± 0.1 h. Also, the Kp at 1 h in data set [3] amounted to 0.54 ± 0.04.

For `Cc1c(Cc2ccc(Cl)nc2)cc(C(=O)N[C@H]2CCCC[C@@H]2O)c2ncccc12` [Example 6, N-(cis-1S,2S-2-Hydroxycyclohexyl)-6-(2-chloropyridin-5-ylmethyl)-5-methylquinoline-8-carboxamide], the concentration giving a half-maximal response (EC50) in data set [1] was 1670 nM. In data set [2] (iv, i.v. 1 mg/kg), this compound showed an AUC(0-t) of 664 ± 81 ng·h/mL, a half-life of 1.5 ± 0.6 h and a clearance of 25 ± 3.3 mL/min/kg. In addition, the bioavailability in data set [2] was found to be 50 ± 2%. Besides, in data set [2] (oral 3 mg/kg), the AUC(0-t) was determined as 1000 ± 38 ng·h/mL, the peak level (Cmax) was 582 ± 72 ng/mL, the time to peak (Tmax) amounted to 0.5 h and the half-life was 1.3 ± 0.2 h. Moreover, the Kp at 1 h in data set [3] turned out to be 0.26 ± 0.04.

Turning to `Cc1c(Cc2ccc(-c3cnn(C)c3)c(F)c2F)cc(C(=O)N[C@H]2CCCC[C@@H]2O)c2ncccc12` [Example 8, N-(cis-1S,2S-2-Hydroxycyclohexyl)-6-[2,3-difluoro-4-(1-methyl-1H-pyrazol-4-yl)-benzyl]-5-methylquinoline-8-carboxamide], the EC50 in data set [1] came to 168 nM. In data set [2] (iv, i.v. 1 mg/kg), this compound gave an AUC(0-t) of 6150 ± 485 ng·h/mL, a half-life of 3.3 ± 0.7 h and a clearance of 2.7 ± 0.2 mL/min/kg. Moreover, the bioavailability in data set [2] was found to be 100 ± 16%. In addition, in data set [2] (oral 3 mg/kg), the AUC(0-t) was 18400 ng·h/mL, the highest concentration (Cmax) was 2330 ± 441 ng/mL, the time to peak (Tmax) came out at 2 h and the half-life is 3.6 ± 0.2 h.

With `Cc1c(Cc2cccc(F)c2F)cc(C(=O)N[C@H]2CCCC[C@@H]2O)c2ncccc12` [Example 2, N-(cis-1S,2S-2-Hydroxycyclohexyl)-6-(2,3-difluorobenzyl)-5-methylquinoline-8-carboxamide], in data set [1], the concentration for a half-maximal effect (EC50) amounted to 1680 nM. For the same compound, in data set [2] (iv, i.v. 1 mg/kg), the area under the curve AUC(0-t) worked out at 367 ± 39 ng·h/mL, the half-life was 1.6 ± 0.3 h and the clearance was 45 ± 5 mL/min/kg. In data set [2], the bioavailability worked out at 14 ± 5%. For the same compound, in data set [2] (oral 3 mg/kg), the AUC(0-t) came to 158 ± 58 ng·h/mL, the Cmax was 48 ± 23 ng/mL, the time of peak concentration (Tmax) lay in the range of 0.5 to 2 h and the half-life is 2 ± 0.2 h. In data set [3], the Kp at 1 h turned out to be 1.74 ± 0.03.

As to `Cc1nc2c(C(=O)N[C@H]3CCCC[C@@H]3O)cc(Cc3ccc(-c4cnn(C)c4)cc3)c(C)c2[nH]1` [Example 39, N-(cis-1S,2S-2-Hydroxycyclohexyl)-2,7-dimethyl-6-[4-(1-methyl-1H-pyrazol-4-yl)-benzyl]-1H-benzimidazole-4-carboxamide], the half-maximal effective concentration (EC50) in data set [1] stood at 895 nM.

`O=C(N[C@H]1CCCC[C@@H]1O)c1cc(Cc2cccc(F)c2F)cn2ccnc12` [Example 22, N-(cis-1S,2S-2-Hydroxycyclohexyl)-6-(2.3-difluorobenzyl)-imidazo[1,2-a]pyridine-8-carboxamide]: the EC50 in data set [1] was 3820 nM.

On to `Cc1c(Cc2ccc(-c3cnn(C)c3)nc2)cc(C(=O)N[C@H]2CCCC[C@@H]2O)c2ncccc12` [Example 7, N-(cis-1S,2S-2-Hydroxycyclohexyl)-6-[2-(1-methyl-1H-pyrazol-4-yl)-pyridin-5-ylmethyl]-5-methylquinoline-8-carboxamide], for which, in data set [1], the 50% effective concentration (EC50) came out at 232 nM.

For `Cc1c(Cc2ccc(-c3cnn(C)c3)nc2)cc(C(=O)N[C@@H]2CCCC[C@H]2O)c2nc[nH]c12` [Example 35, N-(cis-1S,2S-2-Hydroxycyclohexyl)-7-methyl-6-[6-(1-methyl-1H-pyrazol-4-yl)-pyridin-3-ylmethyl]-1H-benzimidazole-4-carboxamide], in data set [1], the EC50 was 237 nM.

Turning to `Cc1c(Cc2ccc(-c3cnn(C)c3)cc2)cc(C(=O)N[C@H]2CCCC[C@@H]2O)c2nc[nH]c12` [Example 28, N-(cis-1S,2S-2-Hydroxycyclohexyl)-7-methyl-6-[4-(1-methyl-1H-pyrazol-4-yl)-benzyl]-1H-benzimidazole-4-carboxamide], in data set [1], the half-maximal effective concentration (EC50) amounted to 105 nM.

Consider `Cc1c(Cc2ccnc(F)c2)cc(C(=O)N[C@H]2CCCC[C@@H]2O)c2ncccc12` [Example 4, N-(cis-1S,2S-2-Hydroxycyclohexyl)-6-(2-fluoropyridin-4-ylmethyl)-5-methylquinoline-8-carboxamide], for which, in data set [1], the EC50 is 960 nM.

In the case of `Cc1nc2c(C(=O)N[C@H]3CCCC[C@@H]3O)cc(Cc3ccc(-c4cscn4)cc3)c(C)c2[nH]1` [Example 40, N-(cis-1S,2S-2-Hydroxycyclohexyl)-2,7-dimethyl-6-(4-thiazol-4-yl-benzyl)-1H-benzimidazole-4-carboxamide], in data set [1], the EC50 came out at 1500 nM.

As for `Cc1c(Cc2ccccc2F)cc(C(=O)N[C@H]2CCCC[C@@H]2O)c2ncccc12` [Example 5, N-(cis-1S,2S-2-Hydroxycyclohexyl)-6-(2-fluorobenzyl)-5-methylquinoline-8-carboxamide], the EC50 in data set [1] was 2340 nM.

Take `Cn1cc(-c2ccc(Cc3cc(C(=O)N[C@H]4CCCC[C@@H]4O)c4nccn4c3)c(F)c2F)cn1` [Example 21, N-(cis-1S,2S-2-Hydroxycyclohexyl)-6-[2,3-difluoro-4-(1-methyl-1H-pyrazol-4-yl)-benzyl]-imidazo[1,2-a]pyridine-8-carboxamide]: in data set [1], the EC50 was 1050 nM.

As for `Cc1c(Cc2ccc(-n3cccn3)cc2)cc(C(=O)N[C@H]2CCCC[C@@H]2O)c2nc[nH]c12` [Example 27, N-(cis-1S,2S-2-Hydroxycyclohexyl)-7-methyl-6-(4-pyrazol-1-yl-benzyl)-1H-benzimidazole-4-carboxamide], in data set [1], the EC50 is 357 nM.

As to `Cc1nc2c(C(=O)N[C@H]3CCCC[C@@H]3O)cc(Cc3ccc(-n4cccn4)cc3)c(C)c2[nH]1` [Example 38, N-(cis-1S,2S-2-Hydroxycyclohexyl)-2,7-dimethyl-6-(4-pyrazol-1-yl-benzyl)-1H-benzimidazole-4-carboxamide], the half-maximal effective concentration (EC50) in data set [1] was 694 nM.

The values are drawn from patent US11278530B2, “Polycyclic amides as muscarinic M1 receptor positive allosteric modulators” (SUVEN LIFE SCIENCES LIMITED, priority 2017, dated 2022).
